How the values were obtained:
[1] = cited from earlier work
[2] = Example 6: pritelivir (dihydrate) suspension stability and solubility study; type: physicochemical; details: 0.9% NaCl + 0.5% polysorbate 80 vehicle, RT
Procedure: An aqueous suspension of crystalline pritelivir free base (dihydrate) in a 0.9% NaCl+0.5% polysorbate 80 vehicle was prepared as follows: • 1) Vehicle (0.9% w/w NaCl and 0.5% w/w polysorbate 80) was prepared by dissolving NaCl and polysorbate 80 in water. • 2) Excess amounts of pritelivir (dihydrate) were weighed and added to the vehicle to achieve −3 mg/mL suspension. • 3) The suspension was sonicated for 15 minutes, then agitated at 500 rpm at room temperature. • 4) At 24 hours, the suspension was filtrated and the filter cake was dried and analyzed by XRPD. The filtrate was analyzed by HPLC to determine solubility. The HPLC methodology and conditions used to quantify pritelivir in the filtrate are described in Table 11.

recurrent genital HSV-2 = details: 28 days daily oral dosing; pritelivir 100 mg (after 400 mg loading dose), valacyclovir 500 mg; cited from earlier work
recurrent genital herpes = details: oral 100, 200, 400, 1200 mg; patients with recurrent genital herpes; cited from earlier work

Nc1nc2c(ncn2COCCO)c(=O)[nH]1 [acyclovir]
human bioavailability following oral administration [1]: 10-20%

Cc1nc(N(C)C(=O)Cc2ccc(-c3ccccn3)cc2)sc1S(N)(=O)=O [Dihydrate, N-methyl-N-(4-methyl-5-sulfamoyl-1,3-thiazol-2-yl)-2-[4-(pyridin-2-yl)phenyl]acetamide]
solubility at 24 h ([2]; 0.9% NaCl + 0.5% polysorbate 80 aqueous vehicle, aqueous with cosolvent or surfactant or cyclodextrin, thermodynamic from solid, n = 1): 16.5 µg/mL | Insoluble material (solid form by XRPD after solubility experiment) ([2]; 24 hours): Dihydrate

CC(C)[C@H](N)C(=O)OCCOCn1cnc2c(=O)[nH]c(N)nc21 [valacyclovir]
HSV shedding, % of genital swabs analysed (recurrent genital HSV-2): 5.3%

Cc1cccc(C)c1N(CC(=O)Nc1ccc(-c2ncon2)cc1)C(=O)C1CCS(=O)(=O)CC1 [amenamevir]
time to lesion healing vs placebo (recurrent genital herpes): only significantly different between the very highest 1200 mg single dose group and the placebo-tested group
